Consider two compounds from ChEMBL document CHEMBL5696442, “Discovery of type II inhibitors of TGFβ-activated kinase 1 (TAK1) and mitogen-activated protein kinase kinase kinase kinase 2 (MAP4K2)” (J Med Chem, 2015).

Assay [1] deals with Receptor tyrosine-protein kinase erbB-3 (Homo sapiens) (UniProt P21860). In words: Inhibition of ERBB3 (unknown origin) at 1 uM by Ambit Kinomescan binding assay relative to control.
Assay [2] concerns the target T1, NUAK family SNF1-like kinase 1 (Homo sapiens) (UniProt O60285).
T1 sequence (whole entry): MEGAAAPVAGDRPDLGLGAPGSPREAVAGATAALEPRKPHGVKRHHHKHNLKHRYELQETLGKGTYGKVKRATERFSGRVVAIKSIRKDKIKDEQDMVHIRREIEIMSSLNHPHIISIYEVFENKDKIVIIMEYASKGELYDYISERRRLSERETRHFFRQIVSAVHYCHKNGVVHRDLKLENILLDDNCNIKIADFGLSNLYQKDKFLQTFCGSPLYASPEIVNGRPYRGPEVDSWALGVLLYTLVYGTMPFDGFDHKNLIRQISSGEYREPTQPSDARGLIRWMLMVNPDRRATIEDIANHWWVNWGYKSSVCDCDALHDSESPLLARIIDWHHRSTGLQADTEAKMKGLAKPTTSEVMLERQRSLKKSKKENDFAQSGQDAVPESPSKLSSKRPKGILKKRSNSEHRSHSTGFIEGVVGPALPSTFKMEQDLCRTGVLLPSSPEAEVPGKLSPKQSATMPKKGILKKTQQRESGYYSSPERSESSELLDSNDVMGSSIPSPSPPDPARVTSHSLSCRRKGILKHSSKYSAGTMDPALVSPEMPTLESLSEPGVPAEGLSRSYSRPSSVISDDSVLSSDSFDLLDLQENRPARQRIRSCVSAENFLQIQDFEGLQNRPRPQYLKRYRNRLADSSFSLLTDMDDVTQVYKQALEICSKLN
In words: Inhibition of NuaK1 K2 labeling site in human Huh-7 cells at 10 uM by KiNativ Profiling analysis relative to control. The class given is cell-based.

The target in assay [3] is Serine/threonine-protein kinase 33 (Homo sapiens) (UniProt Q9BYT3). The assay can be described thus: Inhibition of STK33 (unknown origin) at 10 uM by Ambit Kinomescan binding assay.
Sequence of Serine/threonine-protein kinase 33 (Homo sapiens) (Q9BYT3 whole entry, looked up): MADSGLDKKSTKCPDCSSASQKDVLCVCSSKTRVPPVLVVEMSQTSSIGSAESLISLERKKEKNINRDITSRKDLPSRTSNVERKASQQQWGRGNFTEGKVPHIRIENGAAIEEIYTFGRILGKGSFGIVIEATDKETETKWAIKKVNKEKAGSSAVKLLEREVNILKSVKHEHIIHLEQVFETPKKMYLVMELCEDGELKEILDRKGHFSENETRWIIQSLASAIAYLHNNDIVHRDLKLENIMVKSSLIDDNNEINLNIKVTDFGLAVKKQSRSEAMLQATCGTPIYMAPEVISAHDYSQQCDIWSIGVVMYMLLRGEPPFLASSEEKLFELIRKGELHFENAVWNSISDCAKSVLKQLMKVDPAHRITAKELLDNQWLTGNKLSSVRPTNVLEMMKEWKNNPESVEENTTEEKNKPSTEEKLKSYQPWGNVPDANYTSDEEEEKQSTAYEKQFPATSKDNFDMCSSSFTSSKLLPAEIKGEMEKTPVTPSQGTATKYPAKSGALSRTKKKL
Assay [4] concerns the target Serine/threonine-protein kinase ATR (Homo sapiens) (UniProt Q13535). The assay can be described thus: Inhibition of ATR ATP labeling site in human A-375 cells at 5 uM by KiNativ Profiling analysis relative to control. The assay is classed as cell-based.
Assay [5] deals with Serine/threonine-protein kinase 16 (Homo sapiens) (UniProt O75716). In words: Inhibition of MPSK1 K2 labeling site in human Huh-7 cells at 1 uM by KiNativ Profiling analysis relative to control. The class given is cell-based.
Sequence of Serine/threonine-protein kinase 16 (Homo sapiens) (O75716 whole entry): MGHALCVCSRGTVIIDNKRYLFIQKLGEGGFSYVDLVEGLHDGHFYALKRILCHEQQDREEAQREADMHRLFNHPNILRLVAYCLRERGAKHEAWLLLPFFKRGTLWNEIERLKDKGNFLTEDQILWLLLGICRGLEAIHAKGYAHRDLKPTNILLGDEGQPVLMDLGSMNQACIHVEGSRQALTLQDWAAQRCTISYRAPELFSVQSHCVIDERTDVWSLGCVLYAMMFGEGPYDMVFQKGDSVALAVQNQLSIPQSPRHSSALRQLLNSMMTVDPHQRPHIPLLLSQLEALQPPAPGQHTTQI
For assay [6], the target named is T2, Phosphatidylinositol 5-phosphate 4-kinase type-2 alpha (Homo sapiens) (UniProt P48426).
T2 sequence (whole entry): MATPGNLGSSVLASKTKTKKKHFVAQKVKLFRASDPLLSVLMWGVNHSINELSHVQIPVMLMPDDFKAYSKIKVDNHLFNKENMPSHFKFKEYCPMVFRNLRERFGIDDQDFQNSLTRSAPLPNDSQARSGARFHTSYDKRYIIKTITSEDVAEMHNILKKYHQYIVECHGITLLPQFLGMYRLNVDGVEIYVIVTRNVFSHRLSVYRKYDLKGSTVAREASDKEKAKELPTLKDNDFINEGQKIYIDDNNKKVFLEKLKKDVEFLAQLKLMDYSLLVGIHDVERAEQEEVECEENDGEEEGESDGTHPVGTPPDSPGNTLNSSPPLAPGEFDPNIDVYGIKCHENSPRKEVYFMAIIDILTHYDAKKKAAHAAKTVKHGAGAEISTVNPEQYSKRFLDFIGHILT
The assay can be described thus: Inhibition of PIP4K2A ATP labeling site in human A-375 cells at 0.05 uM by KiNativ Profiling analysis relative to control. The assay is classed as cell-based.

For assay [7], the target named is T3, Dual specificity mitogen-activated protein kinase kinase 6 (Homo sapiens) (UniProt P52564).
T3 sequence (whole entry): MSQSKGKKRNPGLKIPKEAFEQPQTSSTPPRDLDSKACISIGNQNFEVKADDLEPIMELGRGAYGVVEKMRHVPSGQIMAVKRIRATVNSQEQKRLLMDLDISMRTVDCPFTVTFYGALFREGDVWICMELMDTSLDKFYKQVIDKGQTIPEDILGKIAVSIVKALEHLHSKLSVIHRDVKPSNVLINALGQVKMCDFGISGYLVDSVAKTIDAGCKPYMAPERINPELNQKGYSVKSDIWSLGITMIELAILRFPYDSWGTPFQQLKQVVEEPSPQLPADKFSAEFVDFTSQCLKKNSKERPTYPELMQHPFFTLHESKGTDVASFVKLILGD
The assay can be described thus: Inhibition of MAP2K6 ACT labeling site in human Huh-7 cells at 1 uM by KiNativ Profiling analysis relative to control. The class given is cell-based.

The source made the active and inactive calls. The calls are words filed in the database; no cut-off is given here.

Sequence of Receptor tyrosine-protein kinase erbB-3 (Homo sapiens) (P21860 whole entry): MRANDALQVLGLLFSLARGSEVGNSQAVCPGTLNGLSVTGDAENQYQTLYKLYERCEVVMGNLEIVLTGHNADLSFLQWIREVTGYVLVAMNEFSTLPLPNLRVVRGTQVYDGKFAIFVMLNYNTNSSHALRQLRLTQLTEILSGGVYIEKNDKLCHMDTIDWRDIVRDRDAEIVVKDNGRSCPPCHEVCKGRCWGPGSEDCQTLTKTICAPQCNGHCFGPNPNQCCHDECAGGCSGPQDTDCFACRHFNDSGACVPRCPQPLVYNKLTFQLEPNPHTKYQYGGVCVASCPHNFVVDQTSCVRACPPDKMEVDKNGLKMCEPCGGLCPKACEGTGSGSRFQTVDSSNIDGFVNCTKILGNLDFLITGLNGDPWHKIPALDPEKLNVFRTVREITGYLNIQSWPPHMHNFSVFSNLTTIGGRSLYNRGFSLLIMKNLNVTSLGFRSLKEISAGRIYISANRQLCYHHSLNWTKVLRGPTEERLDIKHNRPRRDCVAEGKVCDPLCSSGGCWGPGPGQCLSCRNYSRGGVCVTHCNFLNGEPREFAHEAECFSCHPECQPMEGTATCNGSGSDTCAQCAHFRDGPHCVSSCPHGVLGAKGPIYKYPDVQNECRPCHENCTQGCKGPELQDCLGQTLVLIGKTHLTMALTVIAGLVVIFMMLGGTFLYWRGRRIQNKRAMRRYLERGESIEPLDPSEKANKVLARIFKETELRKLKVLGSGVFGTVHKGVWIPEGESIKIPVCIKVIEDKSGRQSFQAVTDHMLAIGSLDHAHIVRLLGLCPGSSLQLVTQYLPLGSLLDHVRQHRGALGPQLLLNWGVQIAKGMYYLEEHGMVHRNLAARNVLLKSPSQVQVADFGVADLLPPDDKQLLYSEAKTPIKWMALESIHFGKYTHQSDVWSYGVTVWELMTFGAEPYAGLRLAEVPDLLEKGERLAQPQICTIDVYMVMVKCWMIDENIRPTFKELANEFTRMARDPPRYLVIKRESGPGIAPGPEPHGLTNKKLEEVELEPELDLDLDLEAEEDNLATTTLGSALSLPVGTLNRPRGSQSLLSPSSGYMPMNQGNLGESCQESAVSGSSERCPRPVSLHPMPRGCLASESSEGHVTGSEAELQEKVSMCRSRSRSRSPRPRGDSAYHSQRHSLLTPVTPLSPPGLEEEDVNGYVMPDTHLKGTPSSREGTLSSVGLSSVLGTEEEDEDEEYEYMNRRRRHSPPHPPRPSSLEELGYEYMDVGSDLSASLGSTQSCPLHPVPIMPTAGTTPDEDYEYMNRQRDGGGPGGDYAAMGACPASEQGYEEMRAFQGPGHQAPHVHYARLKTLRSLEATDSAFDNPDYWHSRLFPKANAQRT
Sequence of Serine/threonine-protein kinase ATR (Homo sapiens) (Q13535 whole entry, looked up): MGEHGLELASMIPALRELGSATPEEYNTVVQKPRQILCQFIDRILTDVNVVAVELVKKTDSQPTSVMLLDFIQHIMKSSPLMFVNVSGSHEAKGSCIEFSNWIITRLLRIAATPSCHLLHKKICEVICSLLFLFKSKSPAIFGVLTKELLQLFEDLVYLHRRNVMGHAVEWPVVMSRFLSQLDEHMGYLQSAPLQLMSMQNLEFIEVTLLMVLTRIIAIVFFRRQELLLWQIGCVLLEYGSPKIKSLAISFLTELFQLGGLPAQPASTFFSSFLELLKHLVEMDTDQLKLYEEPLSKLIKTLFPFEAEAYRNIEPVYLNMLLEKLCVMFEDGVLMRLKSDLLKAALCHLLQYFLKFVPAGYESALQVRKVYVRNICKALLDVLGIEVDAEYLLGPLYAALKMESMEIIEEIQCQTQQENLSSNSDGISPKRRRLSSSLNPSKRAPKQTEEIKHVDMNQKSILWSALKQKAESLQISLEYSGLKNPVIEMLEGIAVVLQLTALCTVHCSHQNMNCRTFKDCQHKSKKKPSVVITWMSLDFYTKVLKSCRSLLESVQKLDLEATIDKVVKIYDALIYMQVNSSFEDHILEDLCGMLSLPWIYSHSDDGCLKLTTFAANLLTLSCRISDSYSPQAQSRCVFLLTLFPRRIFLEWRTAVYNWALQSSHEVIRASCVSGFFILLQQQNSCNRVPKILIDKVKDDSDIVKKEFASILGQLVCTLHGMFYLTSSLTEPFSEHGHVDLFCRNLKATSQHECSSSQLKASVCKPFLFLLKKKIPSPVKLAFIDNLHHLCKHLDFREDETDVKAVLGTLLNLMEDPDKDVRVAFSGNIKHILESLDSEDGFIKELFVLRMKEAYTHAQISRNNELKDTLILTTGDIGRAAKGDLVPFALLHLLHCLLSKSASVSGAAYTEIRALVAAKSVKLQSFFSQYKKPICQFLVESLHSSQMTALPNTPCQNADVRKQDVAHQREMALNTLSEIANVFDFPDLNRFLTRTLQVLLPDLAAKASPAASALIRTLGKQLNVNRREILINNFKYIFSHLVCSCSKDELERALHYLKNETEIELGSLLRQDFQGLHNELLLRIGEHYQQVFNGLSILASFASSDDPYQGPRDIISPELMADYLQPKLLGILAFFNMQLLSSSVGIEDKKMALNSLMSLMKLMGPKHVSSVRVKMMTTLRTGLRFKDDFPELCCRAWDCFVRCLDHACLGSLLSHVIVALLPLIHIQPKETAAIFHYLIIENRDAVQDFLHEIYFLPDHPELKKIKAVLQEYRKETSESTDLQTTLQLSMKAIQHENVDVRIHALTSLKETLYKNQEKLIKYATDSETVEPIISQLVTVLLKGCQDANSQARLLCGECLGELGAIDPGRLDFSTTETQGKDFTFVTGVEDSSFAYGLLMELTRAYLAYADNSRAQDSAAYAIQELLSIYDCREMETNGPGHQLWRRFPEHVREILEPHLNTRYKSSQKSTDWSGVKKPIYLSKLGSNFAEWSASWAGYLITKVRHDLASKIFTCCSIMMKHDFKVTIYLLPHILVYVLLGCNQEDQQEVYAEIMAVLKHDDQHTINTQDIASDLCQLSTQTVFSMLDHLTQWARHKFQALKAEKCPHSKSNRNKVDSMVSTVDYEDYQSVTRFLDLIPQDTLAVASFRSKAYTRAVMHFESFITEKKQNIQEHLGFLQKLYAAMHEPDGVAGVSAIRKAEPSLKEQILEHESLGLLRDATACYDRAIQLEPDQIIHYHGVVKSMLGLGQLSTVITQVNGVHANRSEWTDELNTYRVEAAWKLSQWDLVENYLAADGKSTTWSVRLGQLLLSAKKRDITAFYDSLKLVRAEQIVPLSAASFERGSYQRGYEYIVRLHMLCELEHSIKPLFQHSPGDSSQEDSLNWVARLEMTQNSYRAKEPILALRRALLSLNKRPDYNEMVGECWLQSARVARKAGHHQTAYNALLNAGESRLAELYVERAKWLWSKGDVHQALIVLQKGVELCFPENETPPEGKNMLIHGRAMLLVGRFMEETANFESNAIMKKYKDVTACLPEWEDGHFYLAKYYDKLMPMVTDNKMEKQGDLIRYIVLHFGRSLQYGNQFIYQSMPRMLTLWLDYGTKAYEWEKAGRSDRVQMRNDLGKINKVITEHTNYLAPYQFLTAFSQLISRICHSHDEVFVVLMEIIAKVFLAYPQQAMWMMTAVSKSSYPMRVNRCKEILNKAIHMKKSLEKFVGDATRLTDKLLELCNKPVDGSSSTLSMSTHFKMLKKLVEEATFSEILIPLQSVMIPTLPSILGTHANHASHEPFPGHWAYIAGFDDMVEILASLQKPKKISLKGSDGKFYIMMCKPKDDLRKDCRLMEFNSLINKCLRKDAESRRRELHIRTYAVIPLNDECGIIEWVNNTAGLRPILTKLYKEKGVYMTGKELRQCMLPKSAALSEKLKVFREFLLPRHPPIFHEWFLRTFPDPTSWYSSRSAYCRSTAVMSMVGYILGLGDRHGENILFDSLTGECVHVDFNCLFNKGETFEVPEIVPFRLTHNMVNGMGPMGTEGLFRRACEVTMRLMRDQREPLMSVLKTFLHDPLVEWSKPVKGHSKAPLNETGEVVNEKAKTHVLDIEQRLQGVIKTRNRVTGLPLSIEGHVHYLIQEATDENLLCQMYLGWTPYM

The inhibition is the drop in the measured response relative to a control, in per cent. Consider `CCN1CCN(Cc2ccc(NC(=O)c3ccc(C)c(/C=C/c4cnc5[nH]ccc5c4OC)c3)cc2C(F)(F)F)CC1`, for which the inhibition in assay [1] came out at 100%.

Consider `CCN1CCN(Cc2ccc(NC(=O)c3ccc(C)c(Oc4ccnc5[nH]ccc45)c3)cc2C(F)(F)F)CC1`, for which the inhibition in assay [2] is 35.4%; in assay [4], -2.8%; in assay [5], 6.7%; in assay [6], 13.2%; in assay [7] it was 9.2%. Moreover, in assay [3], the inhibition result was “inactive”.
